These results are taken from patent US8722065B2, “Lidocaine tape preparation” (priority 2007, dated 2014).

The data set can be described thus: Crystal precipitability of lidocaine in the tape preparation / ionic liquid. The class given is physicochemical. Particulars: room temperature for several months. On the procedure:
A content initially inducing the crystal precipitation of lidocaine was examined. […] The crystal precipitability and transdermal absorbability therefor were evaluated. Lidoderm (registered trade name, from Endo, lidocaine content: 5%) was used as a standard material. […]

With `CC(O)C(=O)O.CCN(CC)CC(=O)Nc1c(C)cccc1C` [lactic acid salt of lidocaine], the “Crystal precipitation on storage” value was “no crystal precipitation occurred”.
